Source: patent publication US9247741B2, “Use of macrocyclic picolinamides as fungicides” (DOW AGROSCIENCES LLC, priority 2013, dated 2016)
Like-named read-outs stand apart in the source and are kept apart here.

Key:
Puccinia triticina = experiment: Wheat brown rust (PUCCRT) disease control on wheat seedlings; format: in vivo; details: for pest or weed control at 100 ppm: 100 ppm (high volume); for pest or weed control at 121.5 g/ha: 121.5 g/H (low volume track spray)
Description: Technical grades of materials were dissolved in acetone, which were then mixed with nine volumes of water containing 110 ppm Triton X-100. The fungicide solutions were applied onto wheat seedlings using an automated booth sprayer to run-off. All sprayed plants were allowed to air dry prior to further handling. All fungicides were evaluated using the aforementioned method for their activity vs. all target diseases. Wheat leaf blotch and brown rust activity were also evaluated using track spray applications, in which case the fungicides were formulated as EC formulations, containing 0.1% Trycol 5941 in the spray solutions. Wheat plants (variety Yuma) were grown from seed in a greenhouse in 50% mineral soil/50% soil-less Metro mix until the first leaf was fully emerged, with 7-10 seedlings per pot. These plants were inoculated with an aqueous spore suspension of Septoria tritici either prior to or after fungicide treatments. After inoculation the plants were kept in 100% relative humidity (one day in a dark dew chamber followed by two to three days in a lighted dew chamber at 20° C.) to permit spores to germinate and infect the leaf. The plants were then transferred to a greenhouse set at 20° C. for disease to develop. When disease symptoms were fully expressed on the l^st leaves of untreated plants, infection levels were assessed on a scale of 0 to 100 percent disease severity. Percent disease control was calculated using the ratio of disease severity on treated plants relative to untreated plants. Evaluation of Fungicidal Activity: Wheat Brown Rust (Puccinia triticina; Synonym: Puccinia recondite f sp. tritici; Bayer code PUCCRT) Wheat plants (variety Yuma) were grown from seed in a greenhouse in 50% mineral soil/50% soil-less Metro mix until the first leaf was fully emerged, with 7-10 seedlings per pot. These plants were inoculated with an aqueous spore suspension of Puccinia triticina either prior to or after fungicide treatments. After inoculation the plants were kept in a dark dew room at 22° C. with 100% relative humidity overnight to permit spores to germinate and infect the leaf. The plants were then transferred to a greenhouse set at 24° C. for disease to develop. Fungicide formulation, application and disease assessment followed the procedures as described in the Example A.

[1] = tested on: Mycosphaerella graminicola; Anamorph: Septoria tritici; experiment: Leaf blotch of wheat (SEPTTR) disease control on wheat seedlings; format: in vivo; details: Zymoseptoria tritici, wheat; for pest or weed control at 100 ppm: 100 ppm (high volume); for pest or weed control at 121.5 g/ha: 121.5 g/H (low volume track spray)
Description: Evaluation of Fungicidal Activity: Leaf Blotch of Wheat (Mycosphaerella graminicola; Anamorph: Septoria tritici; Bayer Code […]) Technical grades of materials were dissolved in acetone, which were then mixed with nine volumes of water containing 110 ppm Triton X-100. The fungicide solutions were applied onto wheat seedlings using an automated booth sprayer to run-off. All sprayed plants were allowed to air dry prior to further handling. All fungicides were evaluated using the aforementioned method for their activity vs. all target diseases. Wheat leaf blotch and brown rust activity were also evaluated using track spray applications, in which case the fungicides were formulated as EC formulations, containing 0.1% Trycol 5941 in the spray solutions. Wheat plants (variety Yuma) were grown from seed in a greenhouse in 50% mineral soil/50% soil-less Metro mix until the first leaf was fully emerged, with 7-10 seedlings per pot. These plants were inoculated with an aqueous spore suspension of Septoria tritici either prior to or after fungicide treatments. After inoculation the plants were kept in 100% relative humidity (one day in a dark dew chamber followed by two to three days in a lighted dew chamber at 20° C.) to permit spores to germinate and infect the leaf. The plants were then transferred to a greenhouse set at 20° C. for disease to develop. When disease symptoms were fully expressed on the l^st leaves of untreated plants, infection levels were assessed on a scale of 0 to 100 percent disease severity. Percent disease control was calculated using the ratio of disease severity on treated plants relative to untreated plants.

[2] = 24 h, 1 Day Protectant, read-out: PUCCRT 1DP disease control rating
[3] = 72 h, 3 Day Curative, read-out: PUCCRT 3DC disease control rating
[4] = 24 h, 1 Day Protectant, read-out: SEPTTR 1DP disease control rating
[5] = 72 h, 3 Day Curative, read-out: SEPTTR 3DC disease control rating

Structure (SMILES) | pest or weed control at 100 ppm (Puccinia triticina; [2]) [%] | pest or weed control at 100 ppm (Puccinia triticina; [3]) [%] | pest or weed control at 100 ppm [1, 4] [%] | pest or weed control at 100 ppm [1, 5] [%] | pest or weed control at 121.5 g/ha (Puccinia triticina; [2]) [%] | pest or weed control at 121.5 g/ha (Puccinia triticina; [3]) [%] | pest or weed control at 121.5 g/ha [1, 4] [%] | pest or weed control at 121.5 g/ha [1, 5] [%]
CCCO[C@H]1CCC[C@H](NC(=O)c2nccc(OC)c2O)C(=O)O[C@@H](C)[C@@H]1Cc1ccc(F)cc1 [Compound 37] | > 70 | > 70 | > 70 | < 70 | – | – | – | –
CCOCC(=O)OCOc1c(OC)ccnc1C(=O)N[C@H]1CCC[C@H](Oc2ccc(C)cc2)[C@@H](Cc2ccc(F)cc2)[C@H](C)OC1=O [Compound 35] | – | – | – | – | > 70 | < 70 | < 70 | < 70
COc1ccnc(C(=O)N[C@H]2CCC[C@H](Oc3ccc(C)cc3)[C@@H](Cc3ccc(F)cc3)[C@H](C)OC2=O)c1O [Compound 38] | > 70 | < 70 | > 70 | < 70 | – | – | – | –
CCCO[C@H]1CCC[C@H](NC(=O)c2nccc(OC)c2OCOC(C)=O)C(=O)O[C@@H](C)[C@@H]1Cc1ccc(F)cc1 [Compound 7] | – | – | – | – | > 70 | > 70 | > 70 | > 70
COc1ccnc(C(=O)N[C@H]2CCC[C@H](Oc3ccc(C)cc3)[C@@H](Cc3ccccc3)[C@H](C)OC2=O)c1OC(C)=O [Compound 55] | – | – | – | – | > 70 | > 70 | > 70 | < 70
COc1ccnc(C(=O)N[C@H]2CCC[C@H](OCC(C)C)[C@@H](Cc3ccccc3)[C@H](C)OC2=O)c1OC(C)=O [Compound 72] | – | – | – | – | > 70 | > 70 | > 70 | > 70
COc1ccnc(C(=O)N[C@H]2CCC[C@H](OCc3ccccc3)[C@@H](CCC(C)C)[C@H](C)OC2=O)c1OCOC(C)=O [Compound 1] | – | – | – | – | > 70 | > 70 | > 70 | > 70
CCCC[C@H]1[C@H](C)OC(=O)[C@@H](NC(=O)c2nccc(OC)c2O)CCC[C@@H]1OC(=O)C(C)C [Compound 64] | > 70 | < 70 | > 70 | > 70 | – | – | – | –
CCCC[C@H]1[C@H](C)OC(=O)[C@@H](NC(=O)c2nccc(OC)c2OCOC(C)=O)CCC[C@@H]1OCc1ccccc1 [Compound 15] | – | – | – | – | > 70 | > 70 | > 70 | > 70
CCCC[C@H]1[C@H](C)OC(=O)[C@@H](NC(=O)c2nccc(OC)c2OCOC(C)=O)CCC[C@@H]1OCCCC(F)(F)F [Compound 52] | – | – | – | – | > 70 | > 70 | > 70 | > 70
CCCC[C@H]1[C@H](C)OC(=O)[C@@H](NC(=O)c2nccc(OC)c2O)CCC[C@@H]1Oc1ccccc1 [Compound 29] | > 70 | > 70 | > 70 | < 70 | – | – | – | –
COc1ccnc(C(=O)N[C@H]2CCC[C@H](OCC3CC3)[C@@H](Cc3ccc(F)cc3)[C@H](C)OC2=O)c1O [Compound 26] | > 70 | > 70 | > 70 | < 70 | – | – | – | –
COc1ccnc(C(=O)N[C@H]2CCC[C@H](Oc3ccc(C)cc3)[C@@H](Cc3ccc(F)cc3)[C@H](C)OC2=O)c1OCOC(C)=O [Compound 42] | – | – | – | – | > 70 | < 70 | > 70 | > 70
COc1ccnc(C(=O)N[C@H]2CCC[C@H](OCC3CC3)[C@@H](Cc3ccccc3)[C@H](C)OC2=O)c1OC(C)=O [Compound 76] | > 70 | > 70 | > 70 | > 70 | – | – | – | –
CCCC[C@H]1[C@H](C)OC(=O)[C@@H](NC(=O)c2nccc(OC)c2O)CCC[C@@H]1OCc1ccccc1 [Compound 47] | > 70 | > 70 | > 70 | < 70 | – | – | – | –
COc1ccnc(C(=O)N[C@H]2CCC[C@H](OCC3CC3)[C@@H](Cc3ccccc3)[C@H](C)OC2=O)c1OCOC(C)=O [Compound 56] | > 70 | > 70 | > 70 | > 70 | – | – | – | –
CCCC[C@H]1[C@H](C)OC(=O)[C@@H](NC(=O)c2nccc(OC)c2OC(C)=O)CCC[C@@H]1OC(=O)C(C)C [Compound 44] | – | – | – | – | > 70 | > 70 | > 70 | > 70
CCCC[C@H]1[C@H](C)OC(=O)[C@@H](NC(=O)c2nccc(OC)c2O)CCC[C@@H]1OCC1CC1 [Compound 32] | > 70 | > 70 | > 70 | > 70 | – | – | – | –
COc1ccnc(C(=O)N[C@H]2CCC[C@H](OC(=O)C3CC3)[C@@H](Cc3ccc(F)cc3)[C@H](C)OC2=O)c1OCOC(C)=O [Compound 43] | – | – | – | – | > 70 | > 70 | > 70 | > 70
CCCC[C@H]1[C@H](C)OC(=O)[C@@H](NC(=O)c2nccc(OC)c2OC(C)=O)CCC[C@@H]1OCc1ccccc1 [Compound 63] | – | – | – | – | > 70 | > 70 | > 70 | > 70
CCCC[C@H]1[C@H](C)OC(=O)[C@@H](NC(=O)c2nccc(OC)c2OCOC(C)=O)CCC[C@@H]1OC(=O)C(C)C [Compound 50] | – | – | – | – | > 70 | > 70 | > 70 | > 70
COc1ccnc(C(=O)N[C@H]2CCC[C@H](OC(=O)C3CC3)[C@@H](Cc3ccc(F)cc3)[C@H](C)OC2=O)c1O [Compound 2] | > 70 | > 70 | > 70 | < 70 | – | – | – | –
COc1ccnc(C(=O)N[C@H]2CCC[C@H](OCC3CC3)[C@@H](Cc3ccccc3)[C@H](C)OC2=O)c1O [Compound 67] | > 70 | > 70 | > 70 | > 70 | – | – | – | –
COc1ccnc(C(=O)N[C@H]2CCC[C@H](OCc3ccccc3)[C@@H](CCC(C)C)[C@H](C)OC2=O)c1O [Compound 58] | > 70 | > 70 | < 70 | < 70 | – | – | – | –
COc1ccnc(C(=O)N[C@H]2CCC[C@H](OCC(C)C)[C@@H](Cc3ccccc3)[C@H](C)OC2=O)c1OCOC(C)=O [Compound 65] | – | – | – | – | > 70 | > 70 | > 70 | > 70
